Measured values from patent US10501503B2, “Modified membrane permeability” (Cathay Biotech Inc., priority 2015, dated 2019).

Assays:
[1] = test system: H. alvei; assay: Cadaverine inhibits gram-negative bacteria: lysine-to-cadaverine conversion after pre-incubation in cadaverine; format: cell-based, Hafnia alvei; conditions: 3% cadaverine for 24 hours
Protocol: We studied the affect of cadaverine on the gram-negative bacteria H. alvei. First, H. alvei was transformed with pCIB60 and grown for 24 hours in 50 mL LB medium with ampicillin (100 μg/mL) at 37° C. The following day, 50 mL of the seed culture was added to a 10 L jar fermenter containing […] of fermentation medium (20 g/L glucose, 30 g/L corn steep liquor, 10 g/L yeast extract, 5 g/L ammonium sulfate, 10 g/L MgSO4, 0.05 g/L FeSO4, 0.05 g/L MnSO4, 5 g/L CaCl2, 0.1 g/L ampicillin), and the fermentation proceeded for 18 hours. 10 g of fermentation broth was collected, centrifuged at 6000 rpm for 5 min at room temperature, and the biomass was recovered. 0.5 g of biomass was added to a 50 mM potassium phosphate buffer with either 0% or 3% cadaverine for 24 hours. After incubation, each sample was centrifuged at 6000 rpm for 5 min at room temperature, the biomass was recovered, and fresh potassium phosphate buffer with lysine-HCl and PLP to a final concentration of 200 g/L and 0.1 mM, respectively, was added. The initial pH of the reaction as adjusted to 5.0, and the reaction was allowed to proceed for 120 minutes at 37° C. […] The cadaverine concentration in each sample was quantified using NMR, and yield was calculated by dividing the molar amount of cadaverine produced by the molar amount of lysine added.

[2] = test system: E. coli; conditions: Qian et al., Biotechnology and Bioengineering 108:93-103, 2010; cited from earlier work

NCCCCCN [cadaverine]
Effect of cadaverine pre-incubation on the cells' ability to convert lysine to cadaverine [1]: significant decrease in conversion ability | Effect of cadaverine on growth of E. coli [2]: inhibits growth
